Experimental data as given in patent US9302999B2, “Substituted triazoles as herbicides” (E. I. DU PONT DE NEMOURS AND COMPANY, priority 2012, dated 2016).
Where two headings read alike, the source gives them in different places.

What was measured:
Assay type in all cases: in vivo
[1] = tested on: velvetleaf (Abutilon theophrasti); experiment: Test A pre-/postemergence: velvetleaf; settings: for pest or weed control at 125 g/ha / pest or weed control at 500 g/ha: Abutilon theophrasti, 240 h
In short: (§1)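 Seeds were sown in loam/sand blend and sprayed preemergence (directed soil spray) and, simultaneously, postemergence at 2–10 cm, one- to two-leaf stage, using compounds in non-phytotoxic solvent with surfactant. After ~10 days in greenhouse, injury was rated visually versus untreated controls, 0 (no effect) to 100 (complete control).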

[2] = tested on: foxtail, giant (giant foxtail, Setaria faberii); experiment: Test A pre-/postemergence: foxtail, giant; settings: for pest or weed control at 125 g/ha / pest or weed control at 500 g/ha: Setaria faberi, 240 h
Text: (§2) Seeds of barnyardgrass (Echinochloa crus-galli), crabgrass, large (large crabgrass, Digitaria sanguinalis), foxtail, giant (giant foxtail, Setaria faberii), morningglory (Ipomoea spp.), pigweed (Amaranthus retroflexus), velvetleaf (Abutilon theophrasti), wheat (Triticum aestivum), and corn (Zea mays) were planted into a blend of loam soil and sand and treated preemergence with a directed soil spray using test chemicals formulated in a non-phytotoxic solvent mixture which included a surfactant. At the same time these species were also treated with postemergence applications of test chemicals formulated in the same manner.
(§3) Plants ranged in height from two to ten cm and were in the one- to two-leaf stage for the postemergence treatment. Treated plants and untreated controls were maintained in a greenhouse for approximately ten days, after which time all treated plants were compared to untreated controls and visually evaluated for injury. Plant response ratings, summarized in Table A, are based on a 0 to 100 scale where 0 is no effect and 100 is complete control. A dash (-) response means no test result.

[3] = tested on: wheat (Triticum aestivum); experiment: Test A pre-/postemergence: wheat; settings: for plant injury at 125 g/ha / plant injury at 500 g/ha: Triticum aestivum, 240 h
In short: as §1

[4] = tested on: morningglory (Ipomoea spp.); experiment: Test A pre-/postemergence: morningglory; settings: for pest or weed control at 125 g/ha / pest or weed control at 500 g/ha: Ipomoea, 240 h
In short: as §1

corn (Zea mays) = experiment: Test A pre-/postemergence: corn
Text: as §2, §3

[5] = tested on: pigweed (Amaranthus retroflexus); experiment: Test A pre-/postemergence: pigweed; settings: for pest or weed control at 125 g/ha / pest or weed control at 500 g/ha: Amaranthus retroflexus, 240 h
In short: as §1

[6] = tested on: barnyardgrass (Echinochloa crus-galli); experiment: Test A pre-/postemergence: barnyardgrass; settings: for pest or weed control at 125 g/ha / pest or weed control at 500 g/ha: Echinochloa crus-galli, 240 h
In short: as §1

[7] = tested on: crabgrass, large (large crabgrass, Digitaria sanguinalis); experiment: Test A pre-/postemergence: crabgrass, large; settings: for pest or weed control at 125 g/ha / pest or weed control at 500 g/ha: Digitaria sanguinalis, 240 h
Text: as §2, §3

[8] = Postemergence, 125 g ai/ha, 0 to 100 scale, 0 is no effect, 100 is complete control
[9] = Postemergence, 500 g ai/ha, visual rating on 0 to 100 scale (0 no effect, 100 complete control), approximately ten days
[10] = Preemergence, 125 g ai/ha, 0 to 100 scale where 0 is no effect and 100 is complete control
[11] = Preemergence, 500 g ai/ha, 0 to 100 scale (0 no effect, 100 complete control)

OCc1nn(-c2ccc(C(F)(F)F)cc2)nc1Oc1cccc(OC(F)(F)F)c1 [Compound 114, 5-[3-(trifluoromethoxy)phenoxy]-2-[4-(trifluoromethyl)phenyl]-2H-1,2,3-triazole-4-methanol]
40%: pest or weed control at 500 g/ha ([2]; post-emergence, Postemergence, 500 g ai/ha, visual rating on 0 to 100 scale (0 no effect, 100 complete control), approximately ten days, read-out: Foxtail, Giant plant response rating)
80%: pest or weed control at 125 g/ha ([5]; post-emergence, Postemergence, 125 g ai/ha, 0 to 100 scale, 0 is no effect, 100 is complete control, read-out: Pigweed plant response rating)
20%: plant injury at 125 g/ha (corn (Zea mays); Zea mays, post-emergence, 240 h, Postemergence, 125 g ai/ha, 0 to 100 scale, 0 is no effect, 100 is complete control, read-out: Corn plant response rating)
70%: pest or weed control at 500 g/ha ([7]; post-emergence, Postemergence, 500 g ai/ha, visual rating on 0 to 100 scale (0 no effect, 100 complete control), approximately ten days, read-out: Crabgrass, Large plant response rating)
90%: pest or weed control at 500 g/ha ([4]; post-emergence, Postemergence, 500 g ai/ha, visual rating on 0 to 100 scale (0 no effect, 100 complete control), approximately ten days, read-out: Morningglory plant response rating) | pest or weed control at 500 g/ha ([5]; post-emergence, Postemergence, 500 g ai/ha, visual rating on 0 to 100 scale (0 no effect, 100 complete control), approximately ten days, read-out: Pigweed plant response rating)
30%: pest or weed control at 125 g/ha ([1]; post-emergence, Postemergence, 125 g ai/ha, 0 to 100 scale, 0 is no effect, 100 is complete control, read-out: Velvetleaf plant response rating) | pest or weed control at 125 g/ha ([2]; post-emergence, Postemergence, 125 g ai/ha, 0 to 100 scale, 0 is no effect, 100 is complete control, read-out: Foxtail, Giant plant response rating) | plant injury at 500 g/ha ([3]; post-emergence, Postemergence, 500 g ai/ha, visual rating on 0 to 100 scale (0 no effect, 100 complete control), approximately ten days, read-out: Wheat plant response rating) | pest or weed control at 500 g/ha ([4]; pre-emergence, Preemergence, 500 g ai/ha, 0 to 100 scale (0 no effect, 100 complete control), read-out: Plant response rating, Morningglory) | plant injury at 500 g/ha (corn (Zea mays); Zea mays, post-emergence, 240 h, Postemergence, 500 g ai/ha, visual rating on 0 to 100 scale (0 no effect, 100 complete control), approximately ten days, read-out: Corn plant response rating) | pest or weed control at 125 g/ha ([6]; post-emergence, Postemergence, 125 g ai/ha, 0 to 100 scale, 0 is no effect, 100 is complete control, read-out: Barnyardgrass plant response rating) | pest or weed control at 500 g/ha ([6]; post-emergence, Postemergence, 500 g ai/ha, visual rating on 0 to 100 scale (0 no effect, 100 complete control), approximately ten days, read-out: Barnyardgrass plant response rating) | pest or weed control at 125 g/ha ([7]; post-emergence, Postemergence, 125 g ai/ha, 0 to 100 scale, 0 is no effect, 100 is complete control, read-out: Crabgrass, Large plant response rating) | pest or weed control at 500 g/ha ([7]; pre-emergence, Preemergence, 500 g ai/ha, 0 to 100 scale (0 no effect, 100 complete control), read-out: Plant response rating, Crabgrass, Large)
10%: pest or weed control at 500 g/ha ([1]; pre-emergence, Preemergence, 500 g ai/ha, 0 to 100 scale (0 no effect, 100 complete control), read-out: Plant response rating, Velvetleaf) | pest or weed control at 500 g/ha ([2]; pre-emergence, Preemergence, 500 g ai/ha, 0 to 100 scale (0 no effect, 100 complete control), read-out: Plant response rating, Foxtail, Giant) | plant injury at 125 g/ha ([3]; post-emergence, Postemergence, 125 g ai/ha, 0 to 100 scale, 0 is no effect, 100 is complete control, read-out: Wheat plant response rating) | pest or weed control at 125 g/ha ([4]; pre-emergence, Preemergence, 125 g ai/ha, 0 to 100 scale where 0 is no effect and 100 is complete control, read-out: Plant response rating, Morningglory) | pest or weed control at 500 g/ha ([5]; pre-emergence, Preemergence, 500 g ai/ha, 0 to 100 scale (0 no effect, 100 complete control), read-out: Plant response rating, Pigweed)
60%: pest or weed control at 125 g/ha ([4]; post-emergence, Postemergence, 125 g ai/ha, 0 to 100 scale, 0 is no effect, 100 is complete control, read-out: Morningglory plant response rating)
0%: pest or weed control at 125 g/ha ([1]; pre-emergence, Preemergence, 125 g ai/ha, 0 to 100 scale where 0 is no effect and 100 is complete control, read-out: Plant response rating, Velvetleaf) | pest or weed control at 125 g/ha ([2]; pre-emergence, Preemergence, 125 g ai/ha, 0 to 100 scale where 0 is no effect and 100 is complete control, read-out: Plant response rating, Foxtail, Giant) | plant injury at 125 g/ha ([3]; pre-emergence, Preemergence, 125 g ai/ha, 0 to 100 scale where 0 is no effect and 100 is complete control, read-out: Plant response rating, Wheat) | plant injury at 500 g/ha ([3]; pre-emergence, Preemergence, 500 g ai/ha, 0 to 100 scale (0 no effect, 100 complete control), read-out: Plant response rating, Wheat) | Corn plant response rating (crop injury, 0 = no effect, 100 = complete kill) at 125 g/ha (corn (Zea mays); Zea mays, pre-emergence, 240 h, Preemergence, 125 g ai/ha, 0 to 100 scale where 0 is no effect and 100 is complete control) | Corn plant response rating (crop injury, 0 = no effect, 100 = complete kill) at 500 g/ha (corn (Zea mays); Zea mays, pre-emergence, 240 h, Preemergence, 500 g ai/ha, 0 to 100 scale (0 no effect, 100 complete control)) | pest or weed control at 125 g/ha ([5]; pre-emergence, Preemergence, 125 g ai/ha, 0 to 100 scale where 0 is no effect and 100 is complete control, read-out: Plant response rating, Pigweed) | pest or weed control at 125 g/ha ([6]; pre-emergence, Preemergence, 125 g ai/ha, 0 to 100 scale where 0 is no effect and 100 is complete control, read-out: Plant response rating, Barnyardgrass) | pest or weed control at 500 g/ha ([6]; pre-emergence, Preemergence, 500 g ai/ha, 0 to 100 scale (0 no effect, 100 complete control), read-out: Plant response rating, Barnyardgrass) | pest or weed control at 125 g/ha ([7]; pre-emergence, Preemergence, 125 g ai/ha, 0 to 100 scale where 0 is no effect and 100 is complete control, read-out: Plant response rating, Crabgrass, Large)
50%: pest or weed control at 500 g/ha ([1]; post-emergence, Postemergence, 500 g ai/ha, visual rating on 0 to 100 scale (0 no effect, 100 complete control), approximately ten days, read-out: Velvetleaf plant response rating)

Cc1nn(-c2ccc(F)cc2)nc1Oc1cc(C(F)(F)F)ccn1 [Compound 128]
10: Foxtail, Giant plant response rating [2, 9] | Corn plant response rating (corn (Zea mays); [8]) | Corn plant response rating (corn (Zea mays); [9]) | Crabgrass, Large plant response rating [7, 8]
20: Velvetleaf plant response rating [1, 8] | Plant response rating, Foxtail, Giant [2, 11] | Plant response rating, Morningglory [4, 11] | Barnyardgrass plant response rating [6, 9] | Crabgrass, Large plant response rating [7, 9] | Plant response rating, Crabgrass, Large [7, 11]
0: Plant response rating, Velvetleaf [1, 10] | Plant response rating, Velvetleaf [1, 11] | Foxtail, Giant plant response rating [2, 8] | Plant response rating, Foxtail, Giant [2, 10] | Wheat plant response rating [3, 8] | Wheat plant response rating [3, 9] | Plant response rating, Wheat [3, 10] | Plant response rating, Wheat [3, 11] | Plant response rating, Morningglory [4, 10] | Plant response rating, Corn (corn (Zea mays); [10]) | Plant response rating, Corn (corn (Zea mays); [11]) | Plant response rating, Pigweed [5, 10] | Plant response rating, Pigweed [5, 11] | Barnyardgrass plant response rating [6, 8] | Plant response rating, Barnyardgrass [6, 10] | Plant response rating, Barnyardgrass [6, 11] | Plant response rating, Crabgrass, Large [7, 10]
30: Velvetleaf plant response rating [1, 9] | Morningglory plant response rating [4, 8] | Morningglory plant response rating [4, 9] | Pigweed plant response rating [5, 8]
40: Pigweed plant response rating [5, 9]
